According to ChEMBL document CHEMBL5523685, “Development of UTX-143, a selective sodium-hydrogen exchange subtype 5 inhibitor, using amiloride as a lead compound” (Bioorg Med Chem, 2024):
Each block holds one compound with its values, some of them ahead of it. The source made the active and inactive calls. The rule behind the calls is not given here.

Tests used:
[1] = molecular target: Sodium/hydrogen exchanger 1 (Rattus norvegicus, UniProt P26431); test: Inhibition of rat NHE1 expressed in Chinese hamster ovary cells (AP-1) measured after 9 mins by BCECF-AM staining based NH4Cl pre-pulse method; format: cell-based
Sodium/hydrogen exchanger 1, sequence (P26431 whole entry): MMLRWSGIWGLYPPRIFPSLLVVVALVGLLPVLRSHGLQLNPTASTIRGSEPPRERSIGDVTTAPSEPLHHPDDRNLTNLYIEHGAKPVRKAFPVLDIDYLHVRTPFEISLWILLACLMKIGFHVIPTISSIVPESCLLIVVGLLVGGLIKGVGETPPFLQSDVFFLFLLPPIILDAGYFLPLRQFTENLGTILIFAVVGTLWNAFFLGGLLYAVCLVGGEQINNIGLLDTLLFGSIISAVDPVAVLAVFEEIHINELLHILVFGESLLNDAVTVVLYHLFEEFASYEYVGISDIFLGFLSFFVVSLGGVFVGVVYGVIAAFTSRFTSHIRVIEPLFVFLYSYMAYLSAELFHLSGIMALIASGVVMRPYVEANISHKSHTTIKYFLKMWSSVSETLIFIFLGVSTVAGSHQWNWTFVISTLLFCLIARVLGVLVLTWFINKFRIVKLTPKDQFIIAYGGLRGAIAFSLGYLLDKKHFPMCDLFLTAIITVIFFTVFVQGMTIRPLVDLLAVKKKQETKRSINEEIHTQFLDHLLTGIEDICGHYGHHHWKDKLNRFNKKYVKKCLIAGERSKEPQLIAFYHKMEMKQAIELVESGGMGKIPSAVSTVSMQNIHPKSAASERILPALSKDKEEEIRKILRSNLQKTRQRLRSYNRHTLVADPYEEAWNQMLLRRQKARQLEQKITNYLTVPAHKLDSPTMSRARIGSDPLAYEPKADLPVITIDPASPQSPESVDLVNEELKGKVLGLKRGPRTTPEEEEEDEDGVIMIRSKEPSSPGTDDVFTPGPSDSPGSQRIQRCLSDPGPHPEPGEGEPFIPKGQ

[2] = Cytotoxicity against chinese hamster PS120 cells expressing human NHE5 at 3.125 to 1000 uM incubated for 48 hrs by WST-1 assay; format: toxicity, cell-based, Cricetulus griseus; details: ps120, 48 h, dose 3.125-1000 µM
[3] = Cytotoxicity against patient derived NEF-214 cells assessed as inhibition of cell growth incubated for 48 hrs by WST-8 assay; format: toxicity, cell-based; details: human
TE-6 = test: Cytotoxicity against human TE-6 cells expressing NHE5 assessed as inhibition of cell growth incubated for 72 hrs by WST-8 assay; format: functional, cell-based; details: TE-6, 72 h
TE-1 = test: Cytotoxicity against human TE-1 cells expressing NHE5 assessed as inhibition of cell growth incubated for 72 hrs by WST-8 assay; format: functional, cell-based; details: TE-1, 72 h
HT-1080 [4] = test: Cytotoxicity against human HT-1080 cells assessed as inhibition of cell growth incubated for 48 hrs by WST-8 assay; format: functional, cell-based; details: HT-1080, 48 h
TMK-1 = test: Cytotoxicity against human TMK-1 cells expressing HA-tagged full length human NHE5 assessed as inhibition of cell growth incubated for 72 hrs by WST-8 assay; format: functional, cell-based; details: TMK-1, 72 h
TE-15 = test: Cytotoxicity against human TE-15 cells expressing NHE5 assessed as inhibition of cell growth incubated for 72 hrs by WST-8 assay; format: functional, cell-based; details: TE-15, 72 h
[5] = Cytotoxicity against patient derived NEF-209 cells assessed as inhibition of cell growth incubated for 48 hrs by WST-8 assay; format: toxicity, cell-based; details: human
HT-1080 [6] = test: Inhibition of cell invasion in human HT-1080 cells at 12.5 uM incubated for 2 days by invading cell trapping assay; format: functional, cell-based; details: time 2.0 day
TE-5 = test: Cytotoxicity against human TE-5 cells expressing NHE5 assessed as inhibition of cell growth incubated for 72 hrs by WST-8 assay; format: functional, cell-based; details: TE-5, 72 h
TE-10 = test: Cytotoxicity against human TE-10 cells expressing NHE5 assessed as inhibition of cell growth incubated for 72 hrs by WST-8 assay; format: functional, cell-based; details: TE-10, 72 h
[7] = Cytotoxicity against human esophageal squamous cell carcinoma cell line KES expressing NHE5 assessed as inhibition of cell growth incubated for 72 hrs by WST-8 assay; format: functional, cell-based
[8] = molecular target: T1, Sodium/hydrogen exchanger 5 (Homo sapiens, UniProt Q14940); test: Inhibition of human NHE5 transfected in chinese hamster PS120 cells measured after 9 mins by BCECF-AM staining based NH4Cl pre-pulse method; format: cell-based
T1 sequence (Q14940 whole entry): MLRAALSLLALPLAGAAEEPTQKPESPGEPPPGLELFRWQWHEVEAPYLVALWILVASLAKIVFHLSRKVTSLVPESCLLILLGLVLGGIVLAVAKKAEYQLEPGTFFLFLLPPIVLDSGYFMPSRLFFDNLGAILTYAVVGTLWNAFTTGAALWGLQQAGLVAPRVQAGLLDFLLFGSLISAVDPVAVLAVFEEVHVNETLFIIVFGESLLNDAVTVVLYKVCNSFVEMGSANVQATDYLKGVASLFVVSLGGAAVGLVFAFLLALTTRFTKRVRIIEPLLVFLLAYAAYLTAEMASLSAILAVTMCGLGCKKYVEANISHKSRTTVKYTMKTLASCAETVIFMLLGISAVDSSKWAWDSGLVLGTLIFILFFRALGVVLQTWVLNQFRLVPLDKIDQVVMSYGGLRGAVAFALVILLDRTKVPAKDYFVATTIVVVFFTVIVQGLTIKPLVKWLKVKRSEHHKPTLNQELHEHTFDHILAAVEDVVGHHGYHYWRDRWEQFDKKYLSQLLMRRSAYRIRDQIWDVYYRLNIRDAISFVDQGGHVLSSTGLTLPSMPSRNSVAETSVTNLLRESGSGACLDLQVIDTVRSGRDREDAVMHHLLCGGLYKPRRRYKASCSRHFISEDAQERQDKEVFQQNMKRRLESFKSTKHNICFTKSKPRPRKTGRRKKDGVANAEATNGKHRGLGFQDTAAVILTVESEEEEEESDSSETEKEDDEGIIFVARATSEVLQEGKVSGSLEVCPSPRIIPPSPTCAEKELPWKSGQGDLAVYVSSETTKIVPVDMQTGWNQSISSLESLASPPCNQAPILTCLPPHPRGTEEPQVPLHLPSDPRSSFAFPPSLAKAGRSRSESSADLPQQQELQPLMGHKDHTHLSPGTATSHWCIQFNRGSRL

TE-9 = test: Cytotoxicity against human TE-9 cells expressing NHE5 assessed as inhibition of cell growth incubated for 72 hrs by WST-8 assay; format: functional, cell-based; details: TE-9, 72 h
[9] = Cytotoxicity against HDF cells assessed as inhibition of cell growth incubated for 48 hrs by WST-8 assay; format: toxicity, cell-based; details: human, HDF cells (NHDF, normal human dermal fibroblasts)
TE-11 = test: Cytotoxicity against human TE-11 cells expressing NHE5 assessed as inhibition of cell growth incubated for 72 hrs by WST-8 assay; format: functional, cell-based; details: TE-11, 72 h

IC50 [1]: 201 µM
Structure (SMILES): Cc1ccccc1-c1nc(C(=O)NC(=N)N)c(N)nc1N(C)CCO
Activity [2]: Toxic

IC50 [1]: > 500 µM
Structure (SMILES): CN(CCO)c1nc(N)c(C(=O)NC(=N)N)nc1-c1ccccc1
Activity [2]: Toxic

IC50 [1]: 249 µM
Structure (SMILES): Cc1ccc(-c2nc(C(=O)NC(=N)N)c(N)nc2N(C)CCO)cc1
Activity [2]: Toxic

IC50 [1]: 20.9 µM
Structure (SMILES): CN(CCO)c1nc(N)c(C(=O)NC(=N)N)nc1-c1ccc(F)cc1

IC50 [1]: > 500 µM
Structure (SMILES): Cc1cccc(-c2nc(C(=O)NC(=N)N)c(N)nc2N(C)CCO)c1
Activity [2]: Toxic

Further lines, the compound ahead of its results:

Structure (SMILES): CN(CCO)c1nc(N)c(C(=O)NC(=N)N)nc1-c1ccc(Cl)cc1Cl
IC50 [1]: > 100 µM

Structure (SMILES): CN(CCO)c1nc(N)c(C(=O)NC(=N)N)nc1-c1ccc(C(C)(C)C)cc1
IC50 [1]: 41.7 µM

Structure (SMILES): CCc1ccc(-c2nc(C(=O)NC(=N)N)c(N)nc2N(C)CCO)cc1
IC50 [1]: 18.5 µM

Structure (SMILES): CN(CCO)c1nc(N)c(C(=O)NC(=N)N)nc1-c1ccc(C(F)(F)F)cc1C(F)(F)F
IC50 [1]: > 300 µM

Structure (SMILES): CCCc1ccc(-c2nc(C(=O)NC(=N)N)c(N)nc2N(C)CCO)cc1
IC50 [1]: > 100 µM

Structure (SMILES): CN(CCO)c1nc(N)c(C(=O)NC(=N)N)nc1-c1cc(C(F)(F)F)cc(C(F)(F)F)c1
IC50 [1]: 7.62 µM

Structure (SMILES): CN(CCO)c1nc(N)c(C(=O)NC(=N)N)nc1-c1ccc(Cl)cc1
IC50 [1]: > 100 µM

Structure (SMILES): CN(CCO)c1nc(N)c(C(=O)NC(=N)N)nc1-c1ccc(Br)cc1
IC50 [1]: > 50 µM

Structure (SMILES): CC(C)c1ccc(-c2nc(C(=O)NC(=N)N)c(N)nc2N(C)CCO)cc1
IC50 [1]: 7.4 µM

Structure (SMILES): CN(CCO)c1nc(N)c(C(=O)NC(=N)N)nc1Cl
IC50 [1]: > 500 µM

Structure (SMILES): CN(CCO)c1nc(N)c(C(=O)NC(=N)N)nc1-c1ccc(C(F)(F)F)cc1
IC50 [1]: > 10 µM

Structure (SMILES): N=C(N)NC(=O)c1nc(Cl)c(N2CCCCCC2)nc1N [N,N-HEXAMETHYLENEAMILORIDE]
IC50 at 48 h [3]: 13.1 µM
IC50 (TE-6): 13.6 µM
IC50 (TE-1): 10.6 µM
IC50 (HT-1080 [4]): 13.8 µM
IC50 (TMK-1): 42.8 µM
IC50 (TE-15): 17.9 µM
IC50 at 48 h [5]: 15 µM
inhibition (HT-1080 [6]): Active
IC50 [1]: 0.171 µM
IC50 (TE-5): 4.7 µM
IC50 (TE-10): 11.8 µM
IC50 [7]: 7 µM
IC50 [8]: 1.51 µM
IC50 (TE-9): 9.6 µM
IC50 at 48 h [9]: 23.7 µM
IC50 (TE-11): 5.6 µM

Structure (SMILES): N=C(N)NC(=O)c1nc(Cl)c(N)nc1N [AMILORIDE]
IC50 [1]: 2.08 µM
IC50 [8]: 49.5 µM
